Results published in ChEMBL document CHEMBL5465560, “Selectivity Literature for EUbOPEN Chemogenomic Library” (2024).

How the values were obtained:
[1] = target: Fibroblast growth factor receptor 1 (Homo sapiens, UniProt P11362); assay: Selectivity interaction (Kinase screening (Nanosyn)) EUB0000604a FGFR1
[2] = target: Serine/threonine-protein kinase PLK3 (Homo sapiens, UniProt Q9H4B4); assay: Selectivity interaction (Millipore kinase profiler) EUB0000124b PLK3; settings: at 10 µM
[3] = target: T1, Cyclin-dependent kinase 11A (Homo sapiens) (UniProt Q9UQ88); assay: Selectivity interaction (KinomeScan (DiscoverX)) EUB0000045b CDK11A; settings: at 1 µM
T1 sequence (whole entry): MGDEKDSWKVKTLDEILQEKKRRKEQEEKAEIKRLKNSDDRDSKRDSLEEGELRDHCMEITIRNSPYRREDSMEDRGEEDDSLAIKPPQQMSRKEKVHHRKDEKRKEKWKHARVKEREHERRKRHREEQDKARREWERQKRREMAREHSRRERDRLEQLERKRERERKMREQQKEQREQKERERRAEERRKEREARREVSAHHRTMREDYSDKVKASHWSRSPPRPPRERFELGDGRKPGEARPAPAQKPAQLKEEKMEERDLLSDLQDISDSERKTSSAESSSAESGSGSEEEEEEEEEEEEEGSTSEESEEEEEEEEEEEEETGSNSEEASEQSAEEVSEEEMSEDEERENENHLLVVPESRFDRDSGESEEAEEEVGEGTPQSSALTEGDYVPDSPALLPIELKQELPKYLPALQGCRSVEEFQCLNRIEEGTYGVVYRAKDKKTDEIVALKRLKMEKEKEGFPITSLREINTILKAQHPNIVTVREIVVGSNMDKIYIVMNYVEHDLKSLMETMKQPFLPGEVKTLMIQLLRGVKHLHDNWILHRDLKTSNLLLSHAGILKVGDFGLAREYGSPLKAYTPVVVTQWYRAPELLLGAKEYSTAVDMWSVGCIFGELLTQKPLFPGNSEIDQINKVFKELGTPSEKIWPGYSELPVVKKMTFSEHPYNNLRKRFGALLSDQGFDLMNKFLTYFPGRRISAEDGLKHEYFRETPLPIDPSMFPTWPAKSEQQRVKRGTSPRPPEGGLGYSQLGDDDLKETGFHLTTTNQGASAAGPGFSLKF

[4] = target: Serine/threonine-protein kinase SIK1 (Homo sapiens) (UniProt P57059); assay: Selectivity interaction (KinomeScan (DiscoverX)) EUB0000045b SIK1
Sequence of Serine/threonine-protein kinase SIK1 (Homo sapiens) (P57059 whole entry): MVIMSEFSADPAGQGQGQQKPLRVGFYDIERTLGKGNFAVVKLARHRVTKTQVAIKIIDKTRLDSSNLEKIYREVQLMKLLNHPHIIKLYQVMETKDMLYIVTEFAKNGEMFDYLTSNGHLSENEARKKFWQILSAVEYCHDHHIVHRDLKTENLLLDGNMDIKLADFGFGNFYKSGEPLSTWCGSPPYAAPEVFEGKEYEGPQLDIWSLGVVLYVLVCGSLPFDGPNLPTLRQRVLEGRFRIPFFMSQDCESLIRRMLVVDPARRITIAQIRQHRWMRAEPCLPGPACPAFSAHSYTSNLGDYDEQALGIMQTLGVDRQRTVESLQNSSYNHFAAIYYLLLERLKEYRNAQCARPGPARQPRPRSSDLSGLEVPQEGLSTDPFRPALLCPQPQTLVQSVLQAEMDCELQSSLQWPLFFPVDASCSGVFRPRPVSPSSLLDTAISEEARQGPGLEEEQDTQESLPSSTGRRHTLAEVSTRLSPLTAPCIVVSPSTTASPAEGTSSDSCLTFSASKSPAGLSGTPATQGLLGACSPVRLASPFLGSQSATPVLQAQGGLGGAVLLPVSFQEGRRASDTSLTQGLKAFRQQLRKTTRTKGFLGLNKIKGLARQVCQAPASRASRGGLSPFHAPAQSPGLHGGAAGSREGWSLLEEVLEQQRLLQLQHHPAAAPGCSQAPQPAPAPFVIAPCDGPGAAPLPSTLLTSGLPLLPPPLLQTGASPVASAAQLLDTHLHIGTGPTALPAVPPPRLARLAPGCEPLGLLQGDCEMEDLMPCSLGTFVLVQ

[5] = target: Serine/threonine-protein kinase PAK 6 (Homo sapiens) (UniProt Q9NQU5); assay: Selectivity interaction (KinomeScan (DiscoverX)) EUB0000229b PAK6; settings: at 10 µM
Sequence of Serine/threonine-protein kinase PAK 6 (Homo sapiens) (Q9NQU5 whole entry, looked up): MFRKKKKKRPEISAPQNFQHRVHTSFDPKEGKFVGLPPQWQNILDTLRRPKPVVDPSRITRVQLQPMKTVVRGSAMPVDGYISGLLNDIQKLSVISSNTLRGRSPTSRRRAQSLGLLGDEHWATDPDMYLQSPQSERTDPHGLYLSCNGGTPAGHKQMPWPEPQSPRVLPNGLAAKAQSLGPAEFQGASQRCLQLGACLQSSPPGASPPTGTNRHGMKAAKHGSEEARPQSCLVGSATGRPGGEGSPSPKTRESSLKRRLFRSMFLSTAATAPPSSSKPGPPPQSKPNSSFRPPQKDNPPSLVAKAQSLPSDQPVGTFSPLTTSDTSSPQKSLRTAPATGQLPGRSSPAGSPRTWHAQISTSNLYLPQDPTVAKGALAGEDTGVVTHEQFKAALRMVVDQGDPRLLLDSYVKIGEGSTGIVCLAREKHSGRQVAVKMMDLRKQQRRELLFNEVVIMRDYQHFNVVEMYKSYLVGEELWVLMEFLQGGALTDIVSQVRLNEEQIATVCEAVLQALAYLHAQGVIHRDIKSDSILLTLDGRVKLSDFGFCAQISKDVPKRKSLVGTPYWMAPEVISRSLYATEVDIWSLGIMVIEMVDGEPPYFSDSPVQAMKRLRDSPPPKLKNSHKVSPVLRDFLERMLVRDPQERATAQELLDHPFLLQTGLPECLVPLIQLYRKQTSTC

[6] = target: T2, Ephrin type-A receptor 8 (Homo sapiens) (UniProt P29322); assay: Selectivity interaction (KinomeScan (DiscoverX)) EUB0000092b EPHA8; settings: at 10 µM
T2 sequence (whole entry): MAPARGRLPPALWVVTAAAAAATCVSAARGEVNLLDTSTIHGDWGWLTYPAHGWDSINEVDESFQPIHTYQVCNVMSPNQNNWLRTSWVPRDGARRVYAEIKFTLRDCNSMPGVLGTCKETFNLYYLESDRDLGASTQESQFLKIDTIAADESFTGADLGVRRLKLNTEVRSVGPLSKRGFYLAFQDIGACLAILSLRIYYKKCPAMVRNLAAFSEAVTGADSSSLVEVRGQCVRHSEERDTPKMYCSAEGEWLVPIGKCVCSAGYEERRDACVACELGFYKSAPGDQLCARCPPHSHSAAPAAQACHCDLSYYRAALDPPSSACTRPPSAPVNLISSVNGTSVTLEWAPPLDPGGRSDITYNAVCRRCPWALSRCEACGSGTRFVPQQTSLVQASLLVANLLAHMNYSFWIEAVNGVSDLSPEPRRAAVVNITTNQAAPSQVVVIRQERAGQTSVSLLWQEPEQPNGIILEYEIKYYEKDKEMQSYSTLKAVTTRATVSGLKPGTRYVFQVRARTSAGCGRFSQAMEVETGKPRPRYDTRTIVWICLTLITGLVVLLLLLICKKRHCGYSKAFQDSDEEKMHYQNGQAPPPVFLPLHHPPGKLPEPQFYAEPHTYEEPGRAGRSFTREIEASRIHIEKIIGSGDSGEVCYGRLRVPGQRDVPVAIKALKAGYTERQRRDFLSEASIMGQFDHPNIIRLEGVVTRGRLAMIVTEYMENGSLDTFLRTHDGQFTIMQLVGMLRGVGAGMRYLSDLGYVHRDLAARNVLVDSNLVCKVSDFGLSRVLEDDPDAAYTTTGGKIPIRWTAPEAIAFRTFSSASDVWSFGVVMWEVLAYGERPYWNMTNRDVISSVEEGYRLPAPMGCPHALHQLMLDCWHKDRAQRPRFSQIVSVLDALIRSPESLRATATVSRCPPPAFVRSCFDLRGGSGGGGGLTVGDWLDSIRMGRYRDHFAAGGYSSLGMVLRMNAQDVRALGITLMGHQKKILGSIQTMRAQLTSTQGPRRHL

[7] = target: T3, Receptor-interacting serine/threonine-protein kinase 4 (Homo sapiens) (UniProt P57078); settings: at 10 µM
T3 sequence (whole entry): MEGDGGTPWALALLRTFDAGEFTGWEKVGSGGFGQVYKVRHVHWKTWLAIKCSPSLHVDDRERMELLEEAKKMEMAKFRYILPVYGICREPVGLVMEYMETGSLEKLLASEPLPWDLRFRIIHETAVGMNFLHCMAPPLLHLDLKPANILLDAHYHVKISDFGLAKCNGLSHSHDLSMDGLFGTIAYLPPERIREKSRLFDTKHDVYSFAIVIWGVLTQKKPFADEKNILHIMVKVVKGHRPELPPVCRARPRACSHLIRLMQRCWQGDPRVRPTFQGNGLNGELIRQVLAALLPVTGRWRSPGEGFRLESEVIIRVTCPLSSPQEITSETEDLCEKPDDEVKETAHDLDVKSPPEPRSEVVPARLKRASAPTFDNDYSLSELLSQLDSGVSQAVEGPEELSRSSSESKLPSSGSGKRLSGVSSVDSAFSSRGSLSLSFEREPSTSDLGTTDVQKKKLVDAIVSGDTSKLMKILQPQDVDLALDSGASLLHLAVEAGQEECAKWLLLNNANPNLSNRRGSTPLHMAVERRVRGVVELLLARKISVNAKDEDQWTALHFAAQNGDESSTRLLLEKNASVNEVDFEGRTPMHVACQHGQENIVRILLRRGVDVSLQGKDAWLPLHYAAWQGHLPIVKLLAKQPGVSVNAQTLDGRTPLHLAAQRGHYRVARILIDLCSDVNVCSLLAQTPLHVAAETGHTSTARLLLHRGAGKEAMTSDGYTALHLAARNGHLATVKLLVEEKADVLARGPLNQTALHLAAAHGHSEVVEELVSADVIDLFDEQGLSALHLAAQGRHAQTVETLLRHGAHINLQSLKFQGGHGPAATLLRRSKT

[8] = target: Serine/threonine-protein kinase 16 (Homo sapiens, UniProt O75716); assay: Selectivity interaction (ActivX KiNativ screen (ex vivo kinase selectivity in human PBMCs)) EUB0001619a STK16; assay type: cell-based; settings: PBMC, at 1 µM
Sequence of Serine/threonine-protein kinase 16 (O75716 whole entry): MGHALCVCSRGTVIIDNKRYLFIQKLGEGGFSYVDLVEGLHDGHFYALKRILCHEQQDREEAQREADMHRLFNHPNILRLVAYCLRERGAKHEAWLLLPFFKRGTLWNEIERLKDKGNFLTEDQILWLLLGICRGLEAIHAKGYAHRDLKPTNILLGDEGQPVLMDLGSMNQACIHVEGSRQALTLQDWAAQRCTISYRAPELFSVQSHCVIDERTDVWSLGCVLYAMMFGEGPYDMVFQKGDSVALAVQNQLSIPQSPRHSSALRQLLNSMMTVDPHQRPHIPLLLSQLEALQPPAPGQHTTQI

Sequence of Fibroblast growth factor receptor 1 (P11362 22-822 limits assumed): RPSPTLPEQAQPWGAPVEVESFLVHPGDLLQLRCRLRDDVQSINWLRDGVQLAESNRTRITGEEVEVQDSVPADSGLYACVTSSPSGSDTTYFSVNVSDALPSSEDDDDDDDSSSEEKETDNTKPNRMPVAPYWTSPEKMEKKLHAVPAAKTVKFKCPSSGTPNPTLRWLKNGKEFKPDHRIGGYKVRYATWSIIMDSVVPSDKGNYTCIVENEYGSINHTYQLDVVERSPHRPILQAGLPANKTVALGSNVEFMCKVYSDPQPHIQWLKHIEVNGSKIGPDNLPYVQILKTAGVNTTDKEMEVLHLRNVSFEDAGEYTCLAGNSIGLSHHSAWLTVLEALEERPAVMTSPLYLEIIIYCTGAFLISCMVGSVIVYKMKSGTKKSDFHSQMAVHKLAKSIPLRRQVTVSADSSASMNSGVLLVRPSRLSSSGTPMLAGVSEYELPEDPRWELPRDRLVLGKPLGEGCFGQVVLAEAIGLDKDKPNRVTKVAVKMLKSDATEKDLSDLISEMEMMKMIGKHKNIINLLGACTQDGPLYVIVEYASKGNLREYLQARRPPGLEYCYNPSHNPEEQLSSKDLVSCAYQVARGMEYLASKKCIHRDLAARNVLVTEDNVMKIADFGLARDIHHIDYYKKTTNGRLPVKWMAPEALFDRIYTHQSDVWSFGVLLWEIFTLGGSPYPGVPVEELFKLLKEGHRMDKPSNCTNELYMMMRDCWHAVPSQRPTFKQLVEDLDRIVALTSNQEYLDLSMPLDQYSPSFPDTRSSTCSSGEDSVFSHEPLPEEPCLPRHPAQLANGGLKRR
Sequence of Serine/threonine-protein kinase PLK3 (Q9H4B4 whole entry, looked up): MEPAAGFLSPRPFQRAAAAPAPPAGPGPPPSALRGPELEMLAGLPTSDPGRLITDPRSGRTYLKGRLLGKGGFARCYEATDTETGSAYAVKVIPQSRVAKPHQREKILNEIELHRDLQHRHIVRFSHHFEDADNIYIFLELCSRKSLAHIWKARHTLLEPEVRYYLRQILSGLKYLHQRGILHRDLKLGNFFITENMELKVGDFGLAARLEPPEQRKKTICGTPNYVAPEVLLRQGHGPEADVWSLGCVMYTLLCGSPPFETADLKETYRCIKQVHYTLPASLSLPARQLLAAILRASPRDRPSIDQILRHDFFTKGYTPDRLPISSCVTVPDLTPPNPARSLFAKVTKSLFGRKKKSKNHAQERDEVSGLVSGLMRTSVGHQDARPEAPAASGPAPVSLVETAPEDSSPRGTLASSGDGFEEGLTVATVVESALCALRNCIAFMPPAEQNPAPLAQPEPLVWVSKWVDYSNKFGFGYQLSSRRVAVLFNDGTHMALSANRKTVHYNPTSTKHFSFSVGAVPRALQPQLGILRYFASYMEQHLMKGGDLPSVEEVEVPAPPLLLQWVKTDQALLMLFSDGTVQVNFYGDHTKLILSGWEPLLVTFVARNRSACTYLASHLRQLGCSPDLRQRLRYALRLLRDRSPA

For `Cc1cnc(Nc2ccc(F)cc2Cl)nc1-c1c[nH]c(C(=O)N[C@H](CO)c2cccc(Cl)c2)c1`, the % of inhibition [1] was 3%.
Compound `CC(=O)Nc1cccc(-n2c(=O)n(C3CC3)c(=O)c3c(Nc4ccc(I)cc4F)n(C)c(=O)c(C)c32)c1` has a % of control [2] of 91%.
`C=CC(=O)Nc1cc(-n2c(=O)ccc3cnc4ccc(-c5ccc(NS(C)(=O)=O)cc5)cc4c32)ccc1C` was tested, and the % of control [3] was 100%, the % of control ([4]; at 1 µM) was 100% and the % of control ([4]; at 10 µM) was 69%.
Compound `COc1cc(N(C)c2ccnc3ccc(C(F)(F)F)cc23)cc(OC)c1OC` has a % binding [5] of 96%.
`CCC(=O)N1CCN(c2ccc(-n3c(=O)ccc4cnc5ccc(-c6cnc7ccccc7c6)cc5c43)cc2C(F)(F)F)CC1` was tested, and the % of control [6] was 71%.
With `Cc1cc([C@@H](C)Nc2ccccc2C(=O)O)c2nc(N3CCOCC3)cc(=O)n2c1` [AZD-6482] the % of control [7] was 99%.
Compound `N#Cc1cccc(-c2c[nH]c3ncnc(N4CCOCC4)c23)c1` has a % of inhibition [8] of 63%.
